US12673034B2, “Peptides, compounds, compositions and methods for inhibiting SOX9” (CRITICAL OUTCOME TECHNOLOGIES INC., priority 2019, dated 2026)
Changes are numbered by the printed parent chain. Where two headings read alike, the source gives them in different places.

Key:
[1] = target: T1, SOX9 (Rattus norvegicus, UniProt F1LYL9); experiment: Q-PCR of SOX9 and SOX9 target gene expression in primary rat astrocyte cultures; type: cell-based; conditions: 10 μM
T1 construct: endogenous in cells; host or cells: primary rat astrocyte cultures
T1 sequence (F1LYL9 1-507): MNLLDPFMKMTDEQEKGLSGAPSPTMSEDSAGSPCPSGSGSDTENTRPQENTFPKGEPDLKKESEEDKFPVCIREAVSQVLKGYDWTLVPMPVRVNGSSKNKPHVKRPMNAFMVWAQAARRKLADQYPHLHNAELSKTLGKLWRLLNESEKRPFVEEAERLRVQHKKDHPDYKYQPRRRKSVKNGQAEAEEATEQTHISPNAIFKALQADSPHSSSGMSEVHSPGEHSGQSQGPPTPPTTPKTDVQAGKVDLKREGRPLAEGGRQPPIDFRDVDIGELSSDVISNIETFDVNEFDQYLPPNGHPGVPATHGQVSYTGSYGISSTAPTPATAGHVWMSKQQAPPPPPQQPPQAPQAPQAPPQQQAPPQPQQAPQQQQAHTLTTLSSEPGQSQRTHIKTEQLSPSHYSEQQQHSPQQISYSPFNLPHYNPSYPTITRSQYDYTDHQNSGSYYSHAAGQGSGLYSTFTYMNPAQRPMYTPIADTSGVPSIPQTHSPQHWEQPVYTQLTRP
Procedure: FIG. 2 graphically depicts results from treatment of two-week old rat astrocytes for 48 h (hours) with 10 μM SOX-DIMER (white), which show decreased SOX9 target gene expression compared to control (FLAG-Tat) peptide-treated cultures (black) (* indicates statistical significance P<0.05, two-tailed t-test; N=4);
Primary astrocyte cultures were treated with 10 μM SOX-DIMER peptide or of a control peptide (FLAG-Tat) for 48 h and then harvested RNA.
(§1) To identify small molecule inhibitors of SOX9 design efforts focused on the septameric peptide sequence (IREAVSQ, SEQ ID NO:1, underlined in the SOX-DIMER sequence given above) identified as a subregion of the known SOX9 dimerization domain with a high likelihood of direct participation in dimerization. This prediction was based on the position of the human mutation that causes the skeletal but not the sex reversal abnormalities of campomelic dyskplasia (Bernard et al 2003). A computational screen of ˜12 million compounds was performed to identify small molecules predicted to interfere with SOX9 dimerization, based on the physical-chemical properties of the SOX-DIMER peptide motif.

[2] = target: T2, SOX9 (Mus musculus, UniProt Q04887); experiment: SOX9 target gene expression in primary mouse astrocyte cultures; type: cell-based; set-up: primary mouse and rat astrocyte cultures; endogenous in cells; host or cells: primary mouse astrocyte cultures; conditions: primary mouse astrocyte cultures (FIG. 3)
T2 sequence (Q04887 1-507): T1 sequence (F1LYL9 1-507) with S314T, P368Q, Q369P, N427S, T432P, T441A

[3] = system: spinal cord injured rats; experiment: Locomotor recovery (hind limb function, open field test, BBB score) after thoracic SCI; type: in vivo; conditions: rat, T9 200 kdyne SCI, intrathecal approximately 400 μg/Kg/day
Procedure: In a longer-term study, compound 1 (approximately 400 μg/Kg/day) or vehicle was again delivered intrathecally to rats immediately after a T9, 200 kdyne SCI, and hind limb function was evaluated twice per week by an observer blinded to treatment group in an open field test for […] (FIG. 5). […] By day 56 the compound 1-treated rats achieved average locomotor BBB scores (Basso et al 1995) of 12.4±0.8 indicating consistent weight supported plantar placement and occasional forelimb/hind limb coordination while the vehicle-treated rats only achieved an average locomotor BBB score of 10.4±0.7, indicating occasional weight supported planter placement with no forelimb/hind limb coordination.

[4] = target: T2, SOX9; experiment: SOX9 target gene expression in chondrogenic cell line ATDC5; type: cell-based; set-up: in the chondrogenic cell line ATDC5; endogenous in cells; host or cells: ATDC5 chondrogenic cell line
Description: as §1
Some of the inhibitor compounds were also tested on ATDC5 cells for their effect on SOX9 target gene expression by q-PCR (aggrecan data is shown in FIG. 11) and on LX-2 (human hepatocyte (stellate cells) cells for collagen gene expression (associated with liver fibrosis), as shown in FIG. 12.

[5] = Spinal cord concentration after intravenous injection, UPLC coupled to mass spectrometry; type: in vivo, rat
Procedure: Compound 1 was delivered intrathecally as it was initially unknown the inhibitory compound could cross the blood brain barrier. To resolve this issue a subsequent study was carried out in which control and T9 spinal cord injured rats were given intravenous injections of compound 1 (1 or 10 nmol/g) or of vehicle at 24 and 48 h after SCI and sacrificed 24 h later. […] Compound 1 was even found in the spinal cords after dosing uninjured controls (FIG. 6).
Using a standard curve, the concentration of compound 1 in the injured spinal cord after a 10 nmol/g iv injection was determined to be 2.7 μM at the lesion epicenter, 1.9 μM in the lumbar cord and 1.02 μM in the uninjured cord.

[6] = system: CSPG levels in the injured rat spinal cord; experiment: CSPG levels in injured rat spinal cord, biotinylated-WFA staining; type: in vivo; conditions: T9 200 kdyne SCI, intrathecal pump approximately 400 μg/Kg/day for 4 weeks, sections caudal to the lesion, vs vehicle
Procedure: To assess the effect of compound 1 on CSPG levels in the injured rat spinal cord, compound 1 or vehicle was delivered by an intrathecal pump delivering compound 1 at approximately 400 μg/Kg/day for 4 weeks starting immediately after a 200 kdyne T9 thoracic SCI. This dose was predicted to result in a concentration of compound 1 of between 10 and 30 μM based on an estimated cerebrospinal fluid volume of 580 μL (Murtha et al 2014) and a turnover rate of about 12-13 times per day (Simon et al 1995).

| Molecule | expression of SOX9 and SOX9 target genes (XT-1, XT-2, Hapln1, Collagen 2a1, GFAP, aggrecan, brevican) ([1]; 48 h, primary astrocyte cultures, vs control peptide FLAG-Tat, Q-PCR (FIG. 2)) | SOX9 target gene expression [2] | average locomotor BBB score ([3]; day 56) | hind limb function in open field test ([3]; vs vehicle) | SOX9 target gene expression [4] | concentration at 24 h after the last injection ([5]; lesion epicenter, T9 spinal cord injured rat, 10 nmol/g iv at 24 and 48 h after SCI, sacrificed 24 h later, read-out: concentration in spinal cord at the lesion epicenter) | concentration at 24 h after the last injection ([5]; lumbar enlargement (distal to the lesion), T9 spinal cord injured rat, 10 nmol/g iv at 24 and 48 h after SCI, sacrificed 24 h later, read-out: concentration in the lumbar cord) | reduction of spinal cord concentrations after 1 nmol/g relative to 10 nmol/g ([5]; rat, 1 nmol/g iv injections) | penetration of the blood-spinal cord barrier ([5]; rat, 10 nmol/g iv, control or spinal cord injured) | concentration at 24 h after the last injection ([5]; uninjured spinal cord, uninjured control rat, 10 nmol/g iv, read-out: concentration in the uninjured cord) | SOX9 target gene expression ([1]; primary rat astrocyte cultures, 48 h vs vehicle (FIG. 3)) | reduction in CSPG levels (WFA staining) [6] |
| --- | --- | --- | --- | --- | --- | --- | --- | --- | --- | --- | --- | --- |
| SOX-DIMER: fusion between the SOX9 dimerization motif (DKFPVCIREAVSQVLKGYDW, SEQ ID NO. 2) and the protein transduction domain of the HIV-1 Tat protein (DKFPVCIREAVSQVLKGYDWKYGRKKRRQRRR) | significantly reducing the expression of SOX9 and SOX9 target genes | – | – | – | – | – | – | – | – | – | – | – |
| COc1ccc(C(=O)N2CCN(C)CC2)cc1NC(=O)COc1cc(C)ccc1C(C)C [compound 1] | – | decrease SOX9 target gene expression | 12.4±0.8 | statistically significant improvement | decrease SOX9 target gene expression | 2700 nM | 1900 nM | 10 fold | can penetrate the blood-spinal cord barrier | 1020 nM | decrease SOX9 target gene expression | 3 fold |
